Results reported in patent publication US12162878B2 (HINOVA PHARMACEUTICALS INC., priority 2018, dated 2024).
Where two headings read alike, the source gives them in different places.

Key:
Vcap cells = test: Inhibition of proliferation of Vcap cells (CCK-8); format: cell-based, human; conditions: for IC50: Homo sapiens, 144 h, 6 days, CCK-8
Experimental: (§1) • Vcap cell line (Cell Bank of Chinese Academy of Sciences, TCHu220) • FBS (Gibco, Cat. No. 10099-141) • 0.01M PBS (Biosharp, Cat. No. 162262) • DMEM HIGH Glucose (Hyclone, Cat. No. SH30243.01) • Penicillin-Streptomycin (Hyclone, Cat. No. SV30010) • Cell counting kit-8 (Signalway Antibody, Cat. No. CP002) • DMSO (Sigma, Cat. No. D5879) • Centrifuge Tube, 15 ml (Excell Bio, Cat. No. CS015-0001) • Cell Culture Dish, (Excell Bio, Cat. No. CS016-0128) • 96-well cell culture cluster (Corning, Cat. No. 3599) 2. Experimental Method
1) Vcap cells were subcultured in cell culture media, and the cells in good growth condition were seeded in a 96-well plate, 80 μL for each well, thus the number of cells per well was 10000, then the plate was cultured overnight in a 37° C., 5% CO2 cell incubator.
2) The drug was prepared with dimethyl sulfoxide (DMSO) as a 10 mM stock solution. Prior to use, the solution was diluted 3 times with DMSO, and then diluted with a 3-fold gradient to obtain 9 concentration gradients. Then, each concentration of the compound was further diluted 200 times with the culture media (to ensure that DMSO concentration in the culture system was 0.1%), 2 repeat wells for each concentration. The diluted solution of each compound (20 μL) was added to the cell culture well (with a final concentration of 10 μM, 3.3 μM, 1.1 μM . . . ), and shaken gently for mixing. In addition, three negative control wells containing only cells and three blank control wells containing only culture medium (20 μL DMSO diluted 200 times with culture medium being added to six wells) were included.
(§2) (1) After culturing for 6 days, 10 μL CCK-8 was added to each well and cultured for additional 2.5 h in a 37° C., 5% CO2 cell incubator.
(§3) (2) The absorbance (OD value) at 450 nm was measured with a multifunctional microplate reader.
(§4) (3) The data was analyzed by the Dose-response-inhibition equation in the software GraphPad Prism6, and the IC50 value was obtained.

CWR22RV1 cells = test: Compound in combination with androgen receptor inhibitor HC-1119, proliferation of CWR22RV1 cells (CCK-8); format: cell-based, human; conditions: for IC50: Homo sapiens, CWR22Rv1, 144 h, 6 days, read-out: IC50 for inhibition on the activity of CWR22RV1
Experimental: as §1, with “CWR22RV1” for “Vcap”, “TCHu100)” for “TCHu220)”, “RIPM1640” for “DMEM HIGH Glucose”, “308090.01)” for “SH30243.01)”, “3599)” for “3599) 2.”, “Method:” for “Method”
1) CWR22RV1 cells were subcultured in cell culture media, and the cells in good growth condition were seeded in a 96-well plate, 60 μL for each well, thus the number of cells per well was 2000, then the plate was cultured overnight in a 37° C., 5% CO2 cell incubator.
2) The drug was prepared with dimethyl sulfoxide (DMSO) as a 10 mM stock solution. Prior to use, the solution was diluted 3 times with DMSO, and then diluted with a 3-fold gradient to obtain 9 concentration gradients. Then, each concentration of the compound was further diluted 200 times with the culture media (to ensure that DMSO concentration in the culture system was 0.1%), 2 repeat wells for each concentration. The diluted solution of each compound (20 μL) was added to the cell culture well (with a final concentration of 10 μM, 3.3 μM, 1.1 μM . . . ); while the solution of HC-1119 was diluted with culture media to the concentrations of 50 μM and 15 μM, respectively, and the diluted solution of HC-1119 was added to the corresponding cell culture well (with a final concentration of 10 μM, 3 μM), then shaken gently for mixing. In addition, three negative control wells containing only cells and three blank control wells containing only culture media (20 μL DMSO diluted 200 times with culture media being added to six wells) were included.
as §2, §3, §4

Row | SMILES | inhibitory action on Vcap cells (in words) (Vcap cells) | IC50 (Vcap cells) [nM] | IC50 (CWR22RV1 cells; compound alone, CWR22RV1 cells) [nM] | IC50 (CWR22RV1 cells; in combination with 3 μM HC-1119, CWR22RV1 cells) [nM] | IC50 (CWR22RV1 cells; in combination with 10 μM HC-1119, CWR22RV1 cells) [nM] | effect of combination with HC-1119 on inhibitory action on CWR22RV1 cells (in words) (CWR22RV1 cells; in combination with HC-1119, CWR22RV1 cells)
1 | [2H]C([2H])([2H])n1cc(-c2cc(S(C)(=O)=O)ccc2N2CCC3(CC2)CC3(F)F)c2cc[nH]c2c1=O [Compound 184, 4-(2-(1,1-difluoro-6-aza-spiro[2.5]octan-6-yl)-5-(methylsulfonyl)phenyl)-6-trideuteromethyl-1H-pyrrolo[2,3-c]pyridin-7(6H)-one] | effective inhibitory action | 15 | 8.1 | 2 | 1.5 | improve the inhibitory action
2 | [2H]C([2H])([2H])n1cc(-c2cc(S(C)(=O)=O)c(F)cc2N2CCC3(CC2)CC3(F)F)c2cc[nH]c2c1=O [Compound 219, 4-(2-(1,1-difluoro-6-aza-spiro[2.5]octan-6-yl)-4-fluoro-5-(methylsulfonyl)phenyl)-6-trideuteromethyl-1H-pyrrolo[2,3-c]pyridin-7(6H)-one] | effective inhibitory action | 17.6 |  |  |  | 
